Species: Rattus norvegicus
Assay: DrugMatrix - Regimen: Daily Repeat
Assay type: toxicity, organism-based, Sprague-Dawley
Design: regimen Daily Repeat, gender Male, age 6-8 weeks
Details: in vivo, po, 1402 mg/kg, route oral GAVAGE, dose level High, vehicle 100 % WATER; for ABSOLUTE BASOPHIL / ABSOLUTE EOSINOPHIL / ABSOLUTE LYMPHOCYTE / ABSOLUTE MONOCYTE / ABSOLUTE SEGMENTED NEUTROPHIL / BASOPHIL / EOSINOPHIL / ERYTHROCYTE COUNT / HEMATOCRIT / HEMOGLOBIN / LEUKOCYTE COUNT / LYMPHOCYTE / MEAN CORPUSCULAR HEMOGLOBIN / MEAN CORPUSCULAR HEMOGLOBIN CONCENTRATION / MEAN CORPUSCULAR VOLUME / MONOCYTE / NEUTROPHIL / NUCLEATED RED BLOOD CELLS / PLATELET COUNT: tissue Blood; for ALANINE AMINOTRANSFERASE / ALBUMIN / ALKALINE PHOSPHATASE / ASPARTATE AMINOTRANSFERASE / BLOOD UREA NITROGEN / CARBON DIOXIDE / CHLORIDE / CHOLESTEROL / CREATINE PHOSPHOKINASE / CREATININE / GLUCOSE / LACTATE DEHYDROGENASE / LIPASE / PHOSPHORUS / POTASSIUM / SODIUM / TOTAL BILIRUBIN / TOTAL PROTEIN / URIC ACID: tissue Plasma

C[C@H](CCC(=O)O)[C@H]1CC[C@H]2[C@@H]3[C@H](O)C[C@@H]4C[C@H](O)CC[C@]4(C)[C@H]3C[C@H](O)[C@]12C [CHOLIC ACID]
ABSOLUTE BASOPHIL (72 h, time 3 day): 0 CELLS/uL | ABSOLUTE EOSINOPHIL (72 h, time 3 day): 95.33 CELLS/uL | ABSOLUTE LYMPHOCYTE (72 h, time 3 day): 13410.67 CELLS/uL | ABSOLUTE MONOCYTE (72 h, time 3 day): 0 CELLS/uL | ABSOLUTE SEGMENTED NEUTROPHIL (72 h, time 3 day): 960.67 CELLS/uL | BASOPHIL (72 h, time 3 day): 0% | EOSINOPHIL (72 h, time 3 day): 0.67% | ERYTHROCYTE COUNT (72 h, time 3 day): 5.62 x10E6/uL | HEMATOCRIT (72 h, time 3 day): 34.5% | HEMOGLOBIN (72 h, time 3 day): 13.7 G/DL | LEUKOCYTE COUNT (72 h, time 3 day): 14.47 x10E3/uL | LYMPHOCYTE (72 h, time 3 day): 92.67% | MEAN CORPUSCULAR HEMOGLOBIN (72 h, time 3 day): 24.47 pg | MEAN CORPUSCULAR HEMOGLOBIN CONCENTRATION (72 h, time 3 day): 39.8 G/DL | MEAN CORPUSCULAR VOLUME (72 h, time 3 day): 61.47 fL | MONOCYTE (72 h, time 3 day): 0% | NEUTROPHIL (72 h, time 3 day): 6.67% | NUCLEATED RED BLOOD CELLS (72 h, time 3 day): 0 /100WBC | PLATELET COUNT (72 h, time 3 day): 1053.33 x10E3/uL | ALANINE AMINOTRANSFERASE (72 h, time 3 day): 55.33 u/L | ALBUMIN (72 h, time 3 day): 4.17 G/DL | ALKALINE PHOSPHATASE (72 h, time 3 day): 359.33 u/L | ASPARTATE AMINOTRANSFERASE (72 h, time 3 day): 84.67 u/L | BLOOD UREA NITROGEN (72 h, time 3 day): 16 mg/dL | CARBON DIOXIDE (72 h, time 3 day): 32 mmol/L | CHLORIDE (72 h, time 3 day): 101.67 MEQ/L | CHOLESTEROL (72 h, time 3 day): 91.33 mg/dL | CREATINE PHOSPHOKINASE (72 h, time 3 day): 224 u/L | CREATININE (72 h, time 3 day): 0.19 mg/dL | GLUCOSE (72 h, time 3 day): 152 mg/dL | LACTATE DEHYDROGENASE (72 h, time 3 day): 124.33 u/L | LIPASE (72 h, time 3 day): 9.67 u/L | PHOSPHORUS (72 h, time 3 day): 12.63 mg/dL | POTASSIUM (72 h, time 3 day): 7.15 MEQ/L | SODIUM (72 h, time 3 day): 144.2 MEQ/L | TOTAL BILIRUBIN (72 h, time 3 day): 0.2 mg/dL | TOTAL PROTEIN (72 h, time 3 day): 5.77 G/DL | URIC ACID (72 h, time 3 day): 1.93 mg/dL | ABSOLUTE BASOPHIL (120 h, time 5 day): 0 CELLS/uL | ABSOLUTE EOSINOPHIL (120 h, time 5 day): 0 CELLS/uL | ABSOLUTE LYMPHOCYTE (120 h, time 5 day): 13701.33 CELLS/uL | ABSOLUTE MONOCYTE (120 h, time 5 day): 565.67 CELLS/uL | ABSOLUTE SEGMENTED NEUTROPHIL (120 h, time 5 day): 1233 CELLS/uL | BASOPHIL (120 h, time 5 day): 0% | EOSINOPHIL (120 h, time 5 day): 0% | ERYTHROCYTE COUNT (120 h, time 5 day): 5.73 x10E6/uL | HEMATOCRIT (120 h, time 5 day): 34.97% | HEMOGLOBIN (120 h, time 5 day): 13.73 G/DL | LEUKOCYTE COUNT (120 h, time 5 day): 15.5 x10E3/uL | LYMPHOCYTE (120 h, time 5 day): 88.67% | MEAN CORPUSCULAR HEMOGLOBIN (120 h, time 5 day): 24 pg | MEAN CORPUSCULAR HEMOGLOBIN CONCENTRATION (120 h, time 5 day): 39.3 G/DL | MEAN CORPUSCULAR VOLUME (120 h, time 5 day): 60.97 fL | MONOCYTE (120 h, time 5 day): 3.67% | NEUTROPHIL (120 h, time 5 day): 7.67% | NUCLEATED RED BLOOD CELLS (120 h, time 5 day): 0.67 /100WBC | PLATELET COUNT (120 h, time 5 day): 1207 x10E3/uL | ALANINE AMINOTRANSFERASE (120 h, time 5 day): 112 u/L | ALBUMIN (120 h, time 5 day): 4.27 G/DL | ALKALINE PHOSPHATASE (120 h, time 5 day): 330 u/L | ASPARTATE AMINOTRANSFERASE (120 h, time 5 day): 171 u/L | BLOOD UREA NITROGEN (120 h, time 5 day): 16.33 mg/dL | CARBON DIOXIDE (120 h, time 5 day): 30.33 mmol/L | CHLORIDE (120 h, time 5 day): 101.67 MEQ/L | CHOLESTEROL (120 h, time 5 day): 94.33 mg/dL | CREATINE PHOSPHOKINASE (120 h, time 5 day): 383.67 u/L | CREATININE (120 h, time 5 day): 0.27 mg/dL | GLUCOSE (120 h, time 5 day): 120.67 mg/dL | LACTATE DEHYDROGENASE (120 h, time 5 day): 380.33 u/L | LIPASE (120 h, time 5 day): 12 u/L | PHOSPHORUS (120 h, time 5 day): 12.13 mg/dL | POTASSIUM (120 h, time 5 day): 7.47 MEQ/L | SODIUM (120 h, time 5 day): 144.4 MEQ/L | TOTAL BILIRUBIN (120 h, time 5 day): 0.2 mg/dL | TOTAL PROTEIN (120 h, time 5 day): 6.23 G/DL | URIC ACID (120 h, time 5 day): 2.1 mg/dL

— ChEMBL document CHEMBL3885881, “DrugMatrix”
